For five compounds, % of engagement and % of control results are on record in ChEMBL document CHEMBL5465560, “Selectivity Literature for EUbOPEN Chemogenomic Library” (2024).

The target of assay [1] is T1, STE20-related kinase adapter protein alpha (Homo sapiens) (UniProt Q7RTN6).
T1 sequence (whole entry): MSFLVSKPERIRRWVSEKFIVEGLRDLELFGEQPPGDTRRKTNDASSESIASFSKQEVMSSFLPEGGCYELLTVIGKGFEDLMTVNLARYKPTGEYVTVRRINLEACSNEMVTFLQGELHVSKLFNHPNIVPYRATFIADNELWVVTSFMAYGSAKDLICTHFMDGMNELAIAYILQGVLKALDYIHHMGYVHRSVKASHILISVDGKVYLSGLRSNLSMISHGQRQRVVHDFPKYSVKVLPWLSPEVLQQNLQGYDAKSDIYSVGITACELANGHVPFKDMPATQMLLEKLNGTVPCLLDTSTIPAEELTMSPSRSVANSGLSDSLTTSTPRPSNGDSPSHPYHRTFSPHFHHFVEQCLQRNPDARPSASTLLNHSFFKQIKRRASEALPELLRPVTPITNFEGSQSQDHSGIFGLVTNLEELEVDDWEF
Nature of the assay: Selectivity interaction (Kinase panel (KiNativ target engagement assay in Jurkat cells)) EUB0001635a STRADA. The assay is classed as cell-based. As to conditions: Selectivity number of off-targets 0.0, Selectivity number of targets 233.0, Source Knowledge https://www.sciencedirect.com/science/article/pii/S2451945619300674?via%3Dihub, at 1 µM.

Assay [2] has as its system T2, Receptor-type tyrosine-protein kinase FLT3 (Homo sapiens), P36888 [K663Q].
T2 sequence (whole entry): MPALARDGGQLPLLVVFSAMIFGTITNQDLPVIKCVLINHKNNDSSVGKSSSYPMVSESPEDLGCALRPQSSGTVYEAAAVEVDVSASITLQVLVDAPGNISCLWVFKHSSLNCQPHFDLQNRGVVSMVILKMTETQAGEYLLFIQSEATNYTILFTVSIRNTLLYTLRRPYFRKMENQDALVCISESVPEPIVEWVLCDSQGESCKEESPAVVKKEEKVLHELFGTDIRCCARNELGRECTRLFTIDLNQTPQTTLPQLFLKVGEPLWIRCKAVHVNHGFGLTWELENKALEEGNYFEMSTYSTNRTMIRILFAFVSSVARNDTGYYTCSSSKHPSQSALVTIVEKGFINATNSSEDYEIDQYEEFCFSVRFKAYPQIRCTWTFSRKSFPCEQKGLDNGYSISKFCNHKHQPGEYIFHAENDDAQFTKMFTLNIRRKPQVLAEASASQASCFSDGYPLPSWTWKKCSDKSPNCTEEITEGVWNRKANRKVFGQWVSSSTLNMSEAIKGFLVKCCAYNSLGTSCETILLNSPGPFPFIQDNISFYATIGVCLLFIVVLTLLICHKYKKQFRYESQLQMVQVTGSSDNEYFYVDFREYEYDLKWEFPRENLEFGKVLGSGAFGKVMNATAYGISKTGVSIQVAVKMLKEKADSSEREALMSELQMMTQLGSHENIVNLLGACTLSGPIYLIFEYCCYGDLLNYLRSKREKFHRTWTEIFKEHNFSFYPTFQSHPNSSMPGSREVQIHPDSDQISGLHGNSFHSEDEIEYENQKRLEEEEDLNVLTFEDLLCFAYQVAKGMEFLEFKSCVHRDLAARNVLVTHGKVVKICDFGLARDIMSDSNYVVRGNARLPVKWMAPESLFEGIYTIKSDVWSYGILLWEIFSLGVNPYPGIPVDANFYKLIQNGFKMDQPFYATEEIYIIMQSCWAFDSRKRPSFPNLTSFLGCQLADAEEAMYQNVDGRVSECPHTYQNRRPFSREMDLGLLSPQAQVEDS
As to the kind of experiment: (§1) Selectivity interaction (KinomeScan (DiscoverX)) EUB0000607a FLT3. As to conditions: at 10 µM.

Assay [3] deals with Receptor-type tyrosine-protein kinase FLT3 (Homo sapiens) (UniProt P36888). The assay is described as §1. As to conditions: at 10 µM.
Assay [4] concerns Receptor-type tyrosine-protein kinase FLT3 (Homo sapiens), P36888 [UNDEFINED MUTATION]. Described as §1. The following applies: at 10 µM.
For assay [5], the target named is T3, Inhibitor of nuclear factor kappa-B kinase subunit alpha (Homo sapiens) (UniProt O15111).
T3 sequence (whole entry): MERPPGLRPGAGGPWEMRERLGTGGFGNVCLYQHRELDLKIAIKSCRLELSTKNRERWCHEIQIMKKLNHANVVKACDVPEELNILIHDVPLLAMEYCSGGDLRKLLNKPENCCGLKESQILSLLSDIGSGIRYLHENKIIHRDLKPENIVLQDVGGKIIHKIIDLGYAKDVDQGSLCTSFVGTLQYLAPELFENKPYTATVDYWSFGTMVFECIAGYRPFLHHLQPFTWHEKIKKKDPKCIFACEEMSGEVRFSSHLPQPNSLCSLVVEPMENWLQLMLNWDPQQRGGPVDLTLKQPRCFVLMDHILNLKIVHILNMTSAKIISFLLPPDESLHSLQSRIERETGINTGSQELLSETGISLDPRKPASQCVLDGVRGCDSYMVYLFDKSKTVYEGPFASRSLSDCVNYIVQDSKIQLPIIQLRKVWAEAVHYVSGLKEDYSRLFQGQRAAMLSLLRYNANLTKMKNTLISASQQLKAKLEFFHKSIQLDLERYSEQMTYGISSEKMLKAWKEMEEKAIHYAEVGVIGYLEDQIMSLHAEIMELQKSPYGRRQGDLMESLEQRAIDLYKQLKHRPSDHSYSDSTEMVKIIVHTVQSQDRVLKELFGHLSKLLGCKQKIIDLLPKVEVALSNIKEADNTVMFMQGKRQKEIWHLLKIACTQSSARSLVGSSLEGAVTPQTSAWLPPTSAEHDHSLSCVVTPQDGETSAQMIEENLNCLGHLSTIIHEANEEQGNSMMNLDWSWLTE
Nature of the assay: Selectivity interaction (KinomeScan (DiscoverX)) EUB0000695a CHUK. The following applies: at 100 nM.

Assay [6] has as its target Serine/threonine-protein kinase RIO2 (Homo sapiens) (UniProt Q9BVS4). As to the kind of experiment: Selectivity interaction (KinomeScan (DiscoverX)) EUB0000092b RIOK2. As to conditions: at 10 µM.
The target in assay [7] is Serine/threonine-protein kinase 35 (Homo sapiens) (UniProt Q8TDR2). As to the kind of experiment: Selectivity interaction (KinomeScan (DiscoverX)) EUB0000595a STK35. The following applies: at 10 µM.
Serine/threonine-protein kinase 35 (Homo sapiens), sequence (Q8TDR2 whole entry): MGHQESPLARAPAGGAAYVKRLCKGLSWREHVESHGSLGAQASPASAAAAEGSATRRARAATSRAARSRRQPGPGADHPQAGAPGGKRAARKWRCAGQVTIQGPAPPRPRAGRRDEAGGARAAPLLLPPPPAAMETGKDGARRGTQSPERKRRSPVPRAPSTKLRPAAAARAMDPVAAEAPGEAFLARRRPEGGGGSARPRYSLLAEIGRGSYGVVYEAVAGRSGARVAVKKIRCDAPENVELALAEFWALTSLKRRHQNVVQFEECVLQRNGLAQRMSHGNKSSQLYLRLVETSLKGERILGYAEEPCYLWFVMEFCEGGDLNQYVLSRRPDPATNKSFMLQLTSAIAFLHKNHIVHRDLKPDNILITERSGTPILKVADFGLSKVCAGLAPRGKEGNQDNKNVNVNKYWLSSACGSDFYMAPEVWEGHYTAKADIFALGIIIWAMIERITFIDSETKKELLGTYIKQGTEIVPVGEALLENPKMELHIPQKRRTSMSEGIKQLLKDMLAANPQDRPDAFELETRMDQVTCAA

Serine/threonine-protein kinase RIO2 (Homo sapiens), sequence (Q9BVS4 whole entry, looked up): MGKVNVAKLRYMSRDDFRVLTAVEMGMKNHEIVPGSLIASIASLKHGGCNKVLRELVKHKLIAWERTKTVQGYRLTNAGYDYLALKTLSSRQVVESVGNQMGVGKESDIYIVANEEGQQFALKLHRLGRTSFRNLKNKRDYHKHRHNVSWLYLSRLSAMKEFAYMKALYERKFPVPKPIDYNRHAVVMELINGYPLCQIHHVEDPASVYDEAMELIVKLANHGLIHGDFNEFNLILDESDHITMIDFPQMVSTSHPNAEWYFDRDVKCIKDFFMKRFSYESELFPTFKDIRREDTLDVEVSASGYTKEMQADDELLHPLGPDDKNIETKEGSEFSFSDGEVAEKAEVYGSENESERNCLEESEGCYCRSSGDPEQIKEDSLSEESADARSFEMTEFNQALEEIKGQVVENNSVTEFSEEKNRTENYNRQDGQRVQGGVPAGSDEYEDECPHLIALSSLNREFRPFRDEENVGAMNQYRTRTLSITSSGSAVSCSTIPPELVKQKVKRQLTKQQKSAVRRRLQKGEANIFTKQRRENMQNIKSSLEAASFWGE

On to `C=CC(=O)Nc1ccc(C(=O)Nc2[nH]nc3c2CN(C(=O)N[C@H](CN(C)C)c2ccccc2)C3(C)C)cc1`, for which the % of engagement in assay [1] was -20.7%.
Consider `CNC(=O)Nc1ccc(-c2nc(N3CC4CCC(C3)O4)c3cnn(C4CCC5(CC4)OCCO5)c3n2)cc1`, for which the values for the % of control in assay [2], in assay [3] and in assay [4] were 69%, 75% and 100%, respectively.
`Cc1cc(F)c(C(=O)Nc2cccc(-c3nncn3C(C)C)n2)cc1-n1cnc(C2CC2)c1` gave a % of control in assay [5] of 100%.
In assay [6], `CCC(=O)N1CCN(c2ccc(-n3c(=O)ccc4cnc5ccc(-c6cnc7ccccc7c6)cc5c43)cc2C(F)(F)F)CC1` gave a % of control of 24%.
In turn, `COCC(=O)NC/C=C/c1ccc2ncnc(Nc3ccc(Oc4ccc(C)nc4)c(C)c3)c2c1` [CP-724714] yielded a % of control in assay [7] of 65%.
